From patent publication US10842807B2, “Methods of treating neurodegenerative disorders comprising DNA methyltransferase inhibitors” (Washington University, priority 2016, dated 2020)

Experiments:
[1] = system: Htt-72Q-expressing primary striatal neurons; assay: Neurofilament (NF) immunofluorescence, neurite degeneration in striatal neurons; assay type: cell-based, mouse; conditions: DIV 4 striatal neurons transduced, fixed seven days later; vs. Htt-72Q (0 μM)
Procedure: Mouse primary cortical and striatal neurons from embryonic day (E) 15.5 Swiss Webster mouse fetuses (Taconic) were first plated in the minimal essential medium (MEM) containing 10% FBS, 0.45% glucose, 1 mM sodium pyruvate, 2 mM glutamine, 20 U/ml penicillin and 20 μg/ml streptomycin, for 3 h and then maintained in serum-free Neurobasal medium (Life Technologies) containing NeuroCult™ SM1 neuronal supplement ([…] Technologies), 0.5 mM glutamine and 25 μM glutamate for the first 3 d in a humidified incubator (37° C. in 5% CO2). Half of the medium was replaced with Neurobasal medium with SM1 and 0.5 mM glutamine every 3 days. Primary cortical neurons plated on 96-well flat clear bottom black plates (Corning #3904) at 4×10^4 cells/well were infected with Htt exon1 expression lentivirus (Htt-25Q or Htt-72Q) or control empty vector lentivirus at 5 days in vitro (DIV 5). Primary striatal neurons plated on 96-well plates at 1×10^5 cells/well were infected with Htt exon1 expression lentivirus at DIV 4. Viral copy number was adjusted for transduction of neurons on the basis of titer measured using the Lenti-X qRT-PCR titration kit (Clontech), and equal numbers of viral particles of Htt-25Q and Htt-72Q expressing lentiviruses were used for transduction. […]
For the measurement of neurofilament (NF) immunofluorescence intensity, cortical and striatal neurons cultured in a 96-well plate were fixed in 4% paraformaldehyde (PFA) in PBS for 20 min nine and seven days after Htt lentiviral infection, respectively, permeabilized with 0.1% Triton X-100 in PBS for 15 min at room temperature, and subjected to indirect immunofluorescence with anti-NF (2H3) primary antibody and Alexa Fluor 568-conjugated goat anti-mouse IgG secondary antibody (Life Technologies). […] Following image background subtraction, the NF immunofluorescence intensity was quantified using an ImageJ-based macro. Image capture and quantification of Htt (EM48) immunofluorescence intensity were performed as described for those of NF. […] About 300 nuclei from three random fields in a well were counted. […]

[2] = system: Bdnf exon IV, VI, and IX transcripts; assay: qRT-PCR of Bdnf exon transcripts in Htt-72Q cortical neurons; assay type: cell-based, mouse; conditions: Htt-72Q-expressing cortical neurons; vs. Htt-72Q plus vehicle
Procedure: RNA was harvested 5 days later and subjected to qRT-PCR for total Bdnf (coding exon IX) using β-actin and 18S rRNA as reference genes. […] FIG. 3C depicts the schematic of the mouse Bdnf locus and the relative RNA levels of the Bdnf exons. White boxes, non-coding exons; gray box, coding exon. qRT-PCR was performed as in using exon-specific Bdnf primers. […] (FIG. 3G, FIG. 3H) Cortical neurons were co-transduced with lenti viruses expressing Htt and indicated shRNA and processed as in (FIG. 3C). […] (FIG. 3I) Primary cortical neurons from BACHD mice were treated with decitabine (0.2 μM) or vehicle for 3.5 days. qRT-PCR was performed using β-actin as a reference gene. […] Data are presented as mean+SEM.
Mouse primary cortical and striatal neurons from embryonic day (E) 15.5 Swiss Webster mouse fetuses (Taconic) were first plated in the minimal essential medium (MEM) containing 10% FBS, 0.45% glucose, 1 mM sodium pyruvate, 2 mM glutamine, 20 U/ml penicillin and 20 μg/ml streptomycin, for 3 h and then maintained in serum-free Neurobasal medium (Life Technologies) containing NeuroCult™ SM1 neuronal supplement ([…] Technologies), 0.5 mM glutamine and 25 μM glutamate for the first 3 d in a humidified incubator (37° C. in 5% CO2). Half of the medium was replaced with Neurobasal medium with SM1 and 0.5 mM glutamine every 3 days.

## Nc1nc(=O)n([C@H]2C[C@H](O)[C@@H](CO)O2)cc1F [FdCyd, 5-fluoro-2′-deoxycytidine]
[1]
  mutant Htt-induced neurite degeneration (NF immunofluorescence intensity), striatal neurons: protected neurons from mutant Htt-induced neurite degeneration
[2]
  expression of Bdnf exon IV, VI, and IX transcripts: increased the expression of Bdnf exon IV, VI, and IX transcripts

## Nc1ncn([C@H]2C[C@H](O)[C@@H](CO)O2)c(=O)n1 [decitabine, 5-aza-2′-deoxycytidine]
[1]
  mutant Htt-induced neurite degeneration (NF immunofluorescence intensity), striatal neurons: protected neurons from mutant Htt-induced neurite degeneration
[2]
  expression of Bdnf exon IV, VI, and IX transcripts: increased the expression of Bdnf exon IV, VI, and IX transcripts
